Experimental data as given in ChEMBL document CHEMBL3885861, “Open TG-GATES”.

Species on record: Rattus norvegicus
Test: Open TG-GATES - Regimen: Single
Format: toxicity, organism-based, Sprague-Dawley
Parameters: regimen Single, gender Male, age 6 weeks
Settings: in vivo, po, route gavage; for gamma-GTP / ALP / ALT / AST / BUN / CRE / Ca / Cl / DBIL / GLC / IP / K / LDH / Na / PL / RALB / TBIL / TC / TG / TP: tissue Plasma; for APTT / Bas / Eos / Fbg / Ht / Lym / MCH / MCHC / MCV / Mono / Neu / PT / Plat / RBC / Ret / WBC: tissue Blood; for KIDNEY_L / KIDNEY_R / KIDNEY_TOTAL: tissue Kidney; for LIVER: tissue Liver

Cc1cccc(Nc2cc(Cl)nc(SCC(=O)O)n2)c1C [PIRINIXIC ACID]
gamma-GTP (0 mg/kg, 24 h, dose level Control): 1.2 IU/L
TERMINAL_BW (10 mg/kg, 3 h, dose level Low): 205.8 g
APTT (10 mg/kg, 3 h, dose level Low): 14 s
Bas (10 mg/kg, 3 h, dose level Low): 0%
Eos (10 mg/kg, 3 h, dose level Low): 0.6%
Fbg (10 mg/kg, 3 h, dose level Low): 312.8 mg/dL
Ht (10 mg/kg, 3 h, dose level Low): 39.2%
Lym (10 mg/kg, 3 h, dose level Low): 70.2%
MCH (10 mg/kg, 3 h, dose level Low): 21.2 pg
MCHC (10 mg/kg, 3 h, dose level Low): 34.1%
MCV (10 mg/kg, 3 h, dose level Low): 62.1 fL
Mono (10 mg/kg, 3 h, dose level Low): 2.6%
Neu (10 mg/kg, 3 h, dose level Low): 26%
PT (10 mg/kg, 3 h, dose level Low): 12.2 s
Plat (10 mg/kg, 3 h, dose level Low): 125.7 x10_4/uL
RBC (10 mg/kg, 3 h, dose level Low): 631.2 x10_4/ul
Ret (10 mg/kg, 3 h, dose level Low): 8.2%
WBC (10 mg/kg, 3 h, dose level Low): 82.9 x10_2/uL
KIDNEY_L (10 mg/kg, 3 h, dose level Low): 0.8 g
KIDNEY_R (10 mg/kg, 3 h, dose level Low): 0.9 g
KIDNEY_TOTAL (10 mg/kg, 3 h, dose level Low): 1.7 g
LIVER (10 mg/kg, 3 h, dose level Low): 8.8 g
ALP (10 mg/kg, 3 h, dose level Low): 1833.4 IU/L
ALT (10 mg/kg, 3 h, dose level Low): 49 IU/L
AST (10 mg/kg, 3 h, dose level Low): 74 IU/L
BUN (10 mg/kg, 3 h, dose level Low): 11 mg/dL
CRE (10 mg/kg, 3 h, dose level Low): 0.2 mg/dL
Ca (10 mg/kg, 3 h, dose level Low): 11.2 mg/dL
Cl (10 mg/kg, 3 h, dose level Low): 103.8 meq/L
DBIL (10 mg/kg, 3 h, dose level Low): 0.058 mg/dL
GLC (10 mg/kg, 3 h, dose level Low): 191 mg/dL
IP (10 mg/kg, 3 h, dose level Low): 11.1 mg/dL
K (10 mg/kg, 3 h, dose level Low): 4.1 meq/L
LDH (10 mg/kg, 3 h, dose level Low): 66.4 IU/L
Na (10 mg/kg, 3 h, dose level Low): 139.8 meq/L
PL (10 mg/kg, 3 h, dose level Low): 173 mg/dL
RALB (10 mg/kg, 3 h, dose level Low): 2.6 g/dL
TBIL (10 mg/kg, 3 h, dose level Low): 0.044 mg/dL
TC (10 mg/kg, 3 h, dose level Low): 87.6 mg/dL
TG (10 mg/kg, 3 h, dose level Low): 161 mg/dL
TP (10 mg/kg, 3 h, dose level Low): 5.7 g/dL
gamma-GTP (10 mg/kg, 3 h, dose level Low): 1 IU/L
TERMINAL_BW (10 mg/kg, 6 h, dose level Low): 203.8 g
APTT (10 mg/kg, 6 h, dose level Low): 16 s
Bas (10 mg/kg, 6 h, dose level Low): 0%
Eos (10 mg/kg, 6 h, dose level Low): 0.6%
Fbg (10 mg/kg, 6 h, dose level Low): 266.8 mg/dL
Ht (10 mg/kg, 6 h, dose level Low): 39.9%
Lym (10 mg/kg, 6 h, dose level Low): 76.2%
MCH (10 mg/kg, 6 h, dose level Low): 22 pg
MCHC (10 mg/kg, 6 h, dose level Low): 34.3%
MCV (10 mg/kg, 6 h, dose level Low): 64.2 fL
Mono (10 mg/kg, 6 h, dose level Low): 2%
Neu (10 mg/kg, 6 h, dose level Low): 20.6%
PT (10 mg/kg, 6 h, dose level Low): 12.4 s
Plat (10 mg/kg, 6 h, dose level Low): 111.3 x10_4/uL
RBC (10 mg/kg, 6 h, dose level Low): 622.6 x10_4/ul
Ret (10 mg/kg, 6 h, dose level Low): 7.5%
WBC (10 mg/kg, 6 h, dose level Low): 80 x10_2/uL
KIDNEY_L (10 mg/kg, 6 h, dose level Low): 0.9 g
KIDNEY_R (10 mg/kg, 6 h, dose level Low): 0.8 g
KIDNEY_TOTAL (10 mg/kg, 6 h, dose level Low): 1.7 g
LIVER (10 mg/kg, 6 h, dose level Low): 7.9 g
ALP (10 mg/kg, 6 h, dose level Low): 1630.4 IU/L
ALT (10 mg/kg, 6 h, dose level Low): 43.6 IU/L
AST (10 mg/kg, 6 h, dose level Low): 79.2 IU/L
BUN (10 mg/kg, 6 h, dose level Low): 10 mg/dL
CRE (10 mg/kg, 6 h, dose level Low): 0.2 mg/dL
Ca (10 mg/kg, 6 h, dose level Low): 10.8 mg/dL
Cl (10 mg/kg, 6 h, dose level Low): 106.2 meq/L
DBIL (10 mg/kg, 6 h, dose level Low): 0.028 mg/dL
GLC (10 mg/kg, 6 h, dose level Low): 190.2 mg/dL
IP (10 mg/kg, 6 h, dose level Low): 10.7 mg/dL
K (10 mg/kg, 6 h, dose level Low): 4.1 meq/L
LDH (10 mg/kg, 6 h, dose level Low): 55.8 IU/L
Na (10 mg/kg, 6 h, dose level Low): 141.8 meq/L
RALB (10 mg/kg, 6 h, dose level Low): 2.6 g/dL
TBIL (10 mg/kg, 6 h, dose level Low): 0.038 mg/dL
TC (10 mg/kg, 6 h, dose level Low): 70.8 mg/dL
TG (10 mg/kg, 6 h, dose level Low): 76.8 mg/dL
TP (10 mg/kg, 6 h, dose level Low): 5.5 g/dL
gamma-GTP (10 mg/kg, 6 h, dose level Low): 1.2 IU/L
TERMINAL_BW (10 mg/kg, 9 h, dose level Low): 203.6 g
APTT (10 mg/kg, 9 h, dose level Low): 16.8 s
Bas (10 mg/kg, 9 h, dose level Low): 0%
Eos (10 mg/kg, 9 h, dose level Low): 0.6%
Fbg (10 mg/kg, 9 h, dose level Low): 248.4 mg/dL
Ht (10 mg/kg, 9 h, dose level Low): 38.9%
Lym (10 mg/kg, 9 h, dose level Low): 73.6%
MCH (10 mg/kg, 9 h, dose level Low): 21.7 pg
MCHC (10 mg/kg, 9 h, dose level Low): 34.5%
MCV (10 mg/kg, 9 h, dose level Low): 63 fL
Mono (10 mg/kg, 9 h, dose level Low): 2.2%
Neu (10 mg/kg, 9 h, dose level Low): 23%
PT (10 mg/kg, 9 h, dose level Low): 12.5 s
Plat (10 mg/kg, 9 h, dose level Low): 105.9 x10_4/uL
RBC (10 mg/kg, 9 h, dose level Low): 618 x10_4/ul
Ret (10 mg/kg, 9 h, dose level Low): 7.7%
WBC (10 mg/kg, 9 h, dose level Low): 67.5 x10_2/uL
KIDNEY_L (10 mg/kg, 9 h, dose level Low): 0.9 g
KIDNEY_R (10 mg/kg, 9 h, dose level Low): 0.9 g
KIDNEY_TOTAL (10 mg/kg, 9 h, dose level Low): 1.7 g
LIVER (10 mg/kg, 9 h, dose level Low): 7.8 g
ALP (10 mg/kg, 9 h, dose level Low): 1462.6 IU/L
ALT (10 mg/kg, 9 h, dose level Low): 35.4 IU/L
AST (10 mg/kg, 9 h, dose level Low): 69.2 IU/L
BUN (10 mg/kg, 9 h, dose level Low): 9.4 mg/dL
CRE (10 mg/kg, 9 h, dose level Low): 0.2 mg/dL
Ca (10 mg/kg, 9 h, dose level Low): 10.6 mg/dL
Cl (10 mg/kg, 9 h, dose level Low): 105 meq/L
DBIL (10 mg/kg, 9 h, dose level Low): 0.024 mg/dL
GLC (10 mg/kg, 9 h, dose level Low): 191.2 mg/dL
IP (10 mg/kg, 9 h, dose level Low): 10.6 mg/dL
K (10 mg/kg, 9 h, dose level Low): 3.7 meq/L
LDH (10 mg/kg, 9 h, dose level Low): 53.2 IU/L
Na (10 mg/kg, 9 h, dose level Low): 141.2 meq/L
PL (10 mg/kg, 9 h, dose level Low): 121.8 mg/dL
RALB (10 mg/kg, 9 h, dose level Low): 2.6 g/dL
TBIL (10 mg/kg, 9 h, dose level Low): 0.034 mg/dL
TC (10 mg/kg, 9 h, dose level Low): 63.8 mg/dL
TG (10 mg/kg, 9 h, dose level Low): 76.6 mg/dL
TP (10 mg/kg, 9 h, dose level Low): 5.3 g/dL
gamma-GTP (10 mg/kg, 9 h, dose level Low): 1.4 IU/L
TERMINAL_BW (10 mg/kg, 24 h, dose level Low): 212.4 g
APTT (10 mg/kg, 24 h, dose level Low): 15.7 s
Bas (10 mg/kg, 24 h, dose level Low): 0.2%
Eos (10 mg/kg, 24 h, dose level Low): 0.8%
Fbg (10 mg/kg, 24 h, dose level Low): 217.8 mg/dL
Ht (10 mg/kg, 24 h, dose level Low): 38.2%
Lym (10 mg/kg, 24 h, dose level Low): 77%
MCH (10 mg/kg, 24 h, dose level Low): 21.4 pg
MCHC (10 mg/kg, 24 h, dose level Low): 34.2%
MCV (10 mg/kg, 24 h, dose level Low): 62.6 fL
Mono (10 mg/kg, 24 h, dose level Low): 2.2%
Neu (10 mg/kg, 24 h, dose level Low): 19.6%
PT (10 mg/kg, 24 h, dose level Low): 12.8 s
Plat (10 mg/kg, 24 h, dose level Low): 111.5 x10_4/uL
RBC (10 mg/kg, 24 h, dose level Low): 611 x10_4/ul
Ret (10 mg/kg, 24 h, dose level Low): 7.3%
WBC (10 mg/kg, 24 h, dose level Low): 90.6 x10_2/uL
KIDNEY_L (10 mg/kg, 24 h, dose level Low): 0.9 g
KIDNEY_R (10 mg/kg, 24 h, dose level Low): 0.9 g
KIDNEY_TOTAL (10 mg/kg, 24 h, dose level Low): 1.9 g
LIVER (10 mg/kg, 24 h, dose level Low): 10.8 g
ALP (10 mg/kg, 24 h, dose level Low): 1927 IU/L
ALT (10 mg/kg, 24 h, dose level Low): 47 IU/L
AST (10 mg/kg, 24 h, dose level Low): 71.4 IU/L
BUN (10 mg/kg, 24 h, dose level Low): 13.6 mg/dL
CRE (10 mg/kg, 24 h, dose level Low): 0.2 mg/dL
Ca (10 mg/kg, 24 h, dose level Low): 11 mg/dL
Cl (10 mg/kg, 24 h, dose level Low): 104.2 meq/L
DBIL (10 mg/kg, 24 h, dose level Low): 0.022 mg/dL
GLC (10 mg/kg, 24 h, dose level Low): 191.4 mg/dL
IP (10 mg/kg, 24 h, dose level Low): 8.7 mg/dL
K (10 mg/kg, 24 h, dose level Low): 4 meq/L
LDH (10 mg/kg, 24 h, dose level Low): 57 IU/L
Na (10 mg/kg, 24 h, dose level Low): 143.2 meq/L
PL (10 mg/kg, 24 h, dose level Low): 108.8 mg/dL
RALB (10 mg/kg, 24 h, dose level Low): 2.5 g/dL
TBIL (10 mg/kg, 24 h, dose level Low): 0.034 mg/dL
TC (10 mg/kg, 24 h, dose level Low): 54.8 mg/dL
TG (10 mg/kg, 24 h, dose level Low): 49.4 mg/dL
TP (10 mg/kg, 24 h, dose level Low): 5.1 g/dL
gamma-GTP (10 mg/kg, 24 h, dose level Low): 1 IU/L
